According to publication PMC7248098, “Biochemical characterization and inhibition of the alternative oxidase enzyme from the fungal phytopathogen Moniliophthora perniciosa” (Communications Biology, 2020):
“And” between values parts separate entries of the source, which are not always exact repeats. Equal values may be shown once.

Assays:
membrane-bound rMpAOX [1] = biological target: T1, membrane-bound rMpAOX (Moniliophthora perniciosa, UniProt A8QJP8); assay: Membrane-bound rMpAOX activity with putative activators (O2 uptake, oxygraph; dose-response); assay type: biochemical;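 on Fractional velocity, %: 100% is the maximal rate reached in the activator titration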
T1 sequence (A8QJP8 entry or part of it): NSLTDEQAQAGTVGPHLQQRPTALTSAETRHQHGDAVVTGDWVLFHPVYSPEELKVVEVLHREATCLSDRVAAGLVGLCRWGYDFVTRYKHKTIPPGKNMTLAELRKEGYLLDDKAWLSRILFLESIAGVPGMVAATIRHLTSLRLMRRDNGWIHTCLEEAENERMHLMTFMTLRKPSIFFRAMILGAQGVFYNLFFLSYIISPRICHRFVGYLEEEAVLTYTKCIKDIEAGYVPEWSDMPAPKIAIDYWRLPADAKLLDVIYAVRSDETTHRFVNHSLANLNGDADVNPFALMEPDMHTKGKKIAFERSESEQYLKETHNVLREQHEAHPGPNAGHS
Experimental: (§1) E. coli membrane preparation was performed as described with minor modifications. […] The cells were disrupted using two passes at […] through a pre-cooled Constant cell disruption system (Constant Systems Ltd). The lysate was centrifuged for 15 min at 16,000 rcf, and the pelleted unbroken cells and large cell debris were discarded. The supernatant was centrifuged for 90 min at 200,000 rcf to collect the fragmented membranes.
(§2) Respiration rates were recorded before and after the addition of putative AOX activators, such as 5′-ADP, 5′-AMP, 5′-GDP, 5′-GMP, glyoxylate, oxaloacetate, pyruvate or succinate (1 mM each unless stated otherwise). […] Data were acquired with the Multiskan FC Microplate Photometer (ThermoFisher). […] Absorbance readings were taken periodically and a blank reactions (substrate without enzyme) were included in every assay and were used to determine and subtract the autoxidation rate (background). Proteoliposomes were assayed as described for the E. coli membrane fraction except that no KCN was included and 0.5 µL of the prep (~50 ng rMpAOX) were added into the reaction. When tested, inhibitors were preincubated with the enzyme in reaction buffer for 2–5 min before starting the reaction by the addition of substrate. The path length (i.e., the height of the reaction medium inside the well) was calculated based on the reaction volume and the well cross-section area informed by the supplier. GraphPad Prism 7.0 (GraphPad Software Inc.) was used for function fitting.

purified rMpAOX = purified rMpAOX (Moniliophthora perniciosa, UniProt A8QJP8); assay: Purified (detergent-solubilised) rMpAOX, Q1H2 oxidation; assay type: biochemical; details: GMP up to 0.5 mM, purified rMpAOX
purified rMpAOX, sequence (A8QJP8 entry or part of it): as above
Experimental: The E. coli membrane fraction was resuspended with 50 mM Tris-HCl pH 7.5, 20% glycerol, 200 mM MgSO4 and 1% Fos-Choline-12 (FC-12) instead of MOPS buffer. The sample was left under gentle rocking for 1 h at 4 °C, after which it was centrifuged at 200,000 rcf for 30 min. […] T. Elthon, Nebraska, USA. Protein content was estimated through the Bradford method[63] and bovine serum albumin as standard.
as §2

[2] = biological target: rMpAOX incorporated into proteoliposomes (Moniliophthora perniciosa, UniProt A8QJP8); assay: rMpAOX incorporated into proteoliposomes with Q10 and NDH-2 (NADH oxidation); assay type: biochemical; details: PL system
rMpAOX incorporated into proteoliposomes, sequence (A8QJP8 entry or part of it): as above
Experimental: Proteoliposomes (PL) were prepared as previously described[44],[45], except that NDH-2 was used instead of complex I and 0.5% DDM was used instead of OG. […] For kinetic studies, PLs were prepared with 50 µg rMpAOX and no NDH-2—in this case, pure NDH-2 was added directly into the enzymatic reaction mixture at a saturating concentration. Briefly, lipids and Q10 stocks in chloroform were mixed in a glass vial and the chloroform dried under a nitrogen stream. The lipids were hydrated and extruded through a 100 nm NanoSizer MINI Liposome Extruder (T&T Scientific) followed by the addition of protein. After treatment with the Bio-Beads SM-2 Resin (Bio-Rad), proteolipososmes were harvested by ultracentrifugation and resuspended in 150 µL of buffer. Enzymatic assays were performed on the same day.
as §2

membrane-bound rMpAOX [3] = biological target: T1, membrane-bound rMpAOX; assay: Dose-response assay of inhibitors with membrane-bound, GMP-activated rMpAOX (NADH oxidation); assay type: biochemical; details: for Fractional velocity, %: log[I]
Experimental: as §1, §2

membrane-bound TAO [4] = assay: Inhibition of membrane-bound TAO (literature); assay type: biochemical, Trypanosoma brucei; details: from literature IC50 values
membrane-bound TAO [5] = tested on: membrane-bound TAO; design: method as in PMID 23180806; details: cited from earlier work
[6] = tested on: WBD (witches' broom disease of cocoa, M. perniciosa); design: method as in PMID 30350447; details: 200 µM, in the absence of a main respiration inhibitor; cited from earlier work

SMILES: Nc1nc2c(ncn2[C@@H]2O[C@H](COP(=O)(O)O)[C@@H](O)[C@H]2O)c(=O)[nH]1 [GMP, 5′-GMP]
- Maximum membrane-bound rMpAOX oxygen uptake (membrane-bound rMpAOX [1]; 1 mM GMP): 0.67 µmol O2 min^−1 mg total protein^−1
- Maximum membrane-bound rMpAOX oxygen uptake per mg AOX (membrane-bound rMpAOX [1]; 1 mM GMP): 5 µmol O2 min^−1 mg AOX^−1
- Increase of membrane-bound rMpAOX oxygen uptake (membrane-bound rMpAOX [1]; 1 mM activator): 9.8 times
- Fold-change in membrane-bound rMpAOX O2 uptake (membrane-bound rMpAOX [1]; 1 mM each, single independent measurements (Fig1a)): 8.8788 and 10.5259 and 10.0722
- Fractional velocity, % (membrane-bound rMpAOX [1]; [activator] 0.025 mM (Fig1b)): 56.6% and 57.7%
- Fractional velocity, % (membrane-bound rMpAOX [1]; [activator] 0.075 mM (Fig1b)): 100.5% and 91.4%
- Fractional velocity, % (membrane-bound rMpAOX [1]; [activator] 0.175 mM (Fig1b)): 125.1% and 121.5%
- Fractional velocity, % (membrane-bound rMpAOX [1]; [activator] 0.375 mM (Fig1b)): 153.9% and 143.6%
- Fractional velocity, % (membrane-bound rMpAOX [1]; [activator] 0.625 mM (Fig1b)): 166.3% and 158.4%
- Fractional velocity, % (membrane-bound rMpAOX [1]; [activator] 1.125 mM (Fig1b)): 182.1% and 175.1%
- Fractional velocity, % (membrane-bound rMpAOX [1]; [activator] 2.125 mM (Fig1b)): 186.8% and 187.9%
- Fractional velocity, % (membrane-bound rMpAOX [1]; [activator] 4.125 mM (Fig1b)): 193.5% and 196.9%
- Fractional velocity, % (membrane-bound rMpAOX [1]; [activator] 6.625 mM (Fig1b)): 206.9% and 200.9%
- EC50 (membrane-bound rMpAOX [1]; membrane-bound rMpAOX, 4-parameter sigmoid fit, read-out: EC50 of rMpAOX activation): 166 µM
- Effect on rMpAOX kinetic parameters KM and VMax (purified rMpAOX): did not alter
- Sensitivity of rMpAOX to GMP [2]: not regained

SMILES: CC(/C=C/[C@@]1(C)[C@H](C)CCC(=O)[C@@H]1C)=C\Cc1c(O)c(Cl)c(C)c(C=O)c1O [AC, ascochlorin]
- IC50 (membrane-bound rMpAOX [3]): 5.25 µM
- Fractional velocity, % (membrane-bound rMpAOX [3]; M -5.60206 (Fig2b), 2.5 µM): 73.3239% and 61.6121%
- Fractional velocity, % (membrane-bound rMpAOX [3]; M -6.60206 (Fig2b), 0.25 µM): 96.489% and 80.5494%
- Fractional velocity, % (membrane-bound rMpAOX [3]; M -7.60206 (Fig2b), 0.025 µM): 98.3896% and 89.3939%
- Fractional velocity, % (membrane-bound rMpAOX [3]; M -8.60206 (Fig2b), 0.0025 µM): 99.2565% and 89.0077%
- Fractional velocity, % (membrane-bound rMpAOX [3]; M -9.60206 (Fig2b), 0.00025 µM): 97.0686% and 90.2842%
- Fractional velocity, % (membrane-bound rMpAOX [3]; M -10.6021 (Fig2b), 25 pM): 95.0559% and 89.2874%
- activity at 2.5 µM (membrane-bound rMpAOX [3]; read-out: Fractional velocity, %, log[I], M -5.60206 (Fig2b)): 60.8%
- activity at 0.25 µM (membrane-bound rMpAOX [3]; read-out: Fractional velocity, %, log[I], M -6.60206 (Fig2b)): 92.8%
- activity at 0.025 µM (membrane-bound rMpAOX [3]; read-out: Fractional velocity, %, log[I], M -7.60206 (Fig2b)): 98.2%
- activity at 0.0025 µM (membrane-bound rMpAOX [3]; read-out: Fractional velocity, %, log[I], M -8.60206 (Fig2b)): 97.9%
- activity at 0.00025 µM (membrane-bound rMpAOX [3]; read-out: Fractional velocity, %, log[I], M -9.60206 (Fig2b)): 95.5%
- activity at 25 pM (membrane-bound rMpAOX [3]; read-out: Fractional velocity, %, log[I], M -10.6021 (Fig2b)): 93.4%
- Ratio of AC IC50 to CB IC50 (TAO) (membrane-bound TAO [4]): 7.5
- IC50 (membrane-bound TAO [5]): 0.0015 µM

SMILES: O=C(Nc1cccc(Br)c1)c1cccc(F)c1 [N-(3-bromophenyl)-3-fluorobenzamide]
- Effect in plants against WBD [6]: protective effect
